# Assay results published in patent publication US10138255B2, “Piperazine derivatives as HIV protease inhibitors” (Merck Sharp & Dohme Corp., priority 2014, dated 2018).
# Tested on: HIV-1 (H9IIIB strain)
# Experiment: Cell-Based HIV Infection Assay Using a Reporter (MT4-GFP cells)
# Conditions: Human immunodeficiency virus 1, inflection point (IP) of viral growth inhibition; MT4-GFP cells infected with HIV-1 H9IIIB; 50% normal human serum; mean of at least two independent experiments; read-out: Cell Based IP (50% NHS)
# Method in brief: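 Inflection point from a 4-parameter curve of % viral growth inhibition, normalised to DMSO and triple-drug controls, using the 48 h/24 h ratio of GFP-positive cells (R0). MT4-GFP cells pre-infected 24 h with HIV-1 H9IIIB at low MOI; compounds tested in 50% normal human serum, 0.4% DMSO; mean of ≥2 experiments.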
row,SMILES,EC50
1,"COC(=O)N[C@H](C(=O)Nc1cccc(F)c1CC[C@H]1CN[C@@H]2CCCS(=O)(=O)N1C2)[C@@H](c1ccc(Cl)cc1)[C@H]1CC[C@H](OC)CC1 [Example 187, methyl {(1S,2R)-2-(4-chlorophenyl)-1-[(2-{2-[(6R,9S)-2,2-dioxido-2-thia-1,7-diazabicyclo[4.3.1]dec-9-yl]ethyl}-3-fluorophenyl)carbamoyl]-2-[(1r,4R)-4-methoxycyclohexyl]ethyl}carbamate]",3.2 nM
2,"C[C@@H]1CC([C@H](c2ccc(F)cc2)[C@H](N)C(=O)Nc2cc(F)ccc2CC[C@H]2CN[C@@H]3CCCS(=O)(=O)N2C3)C[C@H](C)O1 (stereo partly drawn) [Example 188, (βR)-β-[(2S,2R)-2,6-dimethyltetrahydro-2H-pyran-4-yl]-N-(2-{2-[(6R,9S)-2,2-dioxido-2-thia-1,7-diazabicyclo[4.3.1]dec-9-yl]ethyl}-5-fluorophenyl)-4-fluoro-L-phenylalaninamide]",25 nM
3,"CO[C@H]1CC[C@H]([C@H](c2ccc(F)cc2)[C@H](N)C(=O)N[C@H]2CCCC[C@@H]2CC[C@H]2CN[C@@H]3CCCS(=O)(=O)N2C3)CC1 [Example 189, (βR)-N-[(1S,2R)-2-{2-[(6R,9S)-2,2-dioxido-2-thia-1,7-diazabicyclo[4.3.1]dec-9-yl]ethyl}cyclohexyl]-4-fluoro-β-[(1r,4R)-4-methoxycyclohexyl]-L-phenylalaninamide]",45 nM
4,"CC1(C)C[C@@H]([C@H](c2ccc(Cl)cc2)[C@H](N)C(=O)Nc2c(F)ccc(F)c2CC[C@H]2CN[C@@H]3CCCS(=O)(=O)N2C3)CCO1 [Example 194, (βR)-4-chloro-β-[(4S)-2,2-dimethyltetrahydro-2H-pyran-4-yl]-N-(2-{2-[(6R,9S)-2,2-dioxido-2-thia-1,7-diazabicyclo[4.3.1]dec-9-yl]ethyl}-3,6-difluorophenyl)-L-phenylalaninamide]",19 nM
5,"N[C@H](C(=O)Nc1cncc(F)c1CC[C@H]1CN[C@@H]2CCCS(=O)(=O)N1C2)[C@@H](c1ccc(F)cc1)C1CCOCC1 [Example 195, (βR)-N-(4-{2-[(6R,9S)-2,2-dioxido-2-thia-1,7-diazabicyclo[4.3.1]dec-9-yl]ethyl}-5-fluoropyridin-3-yl)-4-fluoro-β-(tetrahydro-2H-pyran-4-yl)-L-phenylalaninamide]",67 nM
6,"C[C@@H]1CC([C@H](c2ccc(Cl)cc2)[C@H](N)C(=O)N[C@H]2CCC[C@@H]2CC[C@H]2CN[C@@H]3CCCS(=O)(=O)N2C3)C[C@H](C)O1 (stereo partly drawn) [Example 196, (βR)-4-chloro-β-[(2R,4s,6S)-2,6-dimethyltetrahydro-2H-pyran-4-yl]-N-[(1S,2R)-2-{2-[(6R,9S)-2,2-dioxido-2-thia-1,7-diazabicyclo[4.3.1]dec-9-yl]ethyl}cyclopentyl]-L-phenylalaninamide]",120 nM
7,"COC(=O)N[C@H](C(=O)Nc1c(F)ccc(F)c1CC[C@H]1CN[C@@H]2CCCS(=O)(=O)N1C2)[C@@H](c1ccc(Cl)cc1)[C@H]1CCOC(C)(C)C1 [Example 200, methyl {(1S,2R)-2-(4-chlorophenyl)-2-[(4S)-2,2-dimethyltetrahydro-2H-pyran-4-yl]-1-[(2-{2-[(6R,9S)-2,2-dioxido-2-thia-1,7-diazabicyclo[4.3.1]dec-9-yl]ethyl}-3,6-difluorophenyl)carbamoyl]ethyl}carbamate]",35 nM
8,"COC(=O)N[C@H](C(=O)Nc1cccc(F)c1CC[C@H]1CN[C@@H]2CCCS(=O)(=O)N1C2)[C@@H](c1ccc(F)cc1)[C@H]1CC[C@H](O)CC1 [Example 201, methyl [(1S)-2-[(2-{2-[(6R,9S)-2,2-dioxido-2-thia-1,7-diazabicyclo[4.3.1]dec-9-yl]ethyl}-3-fluorophenyl)amino]-1-{(R)-(4-fluorophenyl)[(1r,4R)-4-hydroxycyclohexyl]methyl}-2-oxoethyl]carbamate]",220 nM
9,"N[C@H](C(=O)Nc1cccc(F)c1CC[C@H]1CN[C@@H]2CCCS(=O)(=O)N1C2)[C@@H](c1ccc(F)cc1)[C@H]1CC[C@H](O)CC1 [Example 202, (βR)-N-(2-{2-[(6R,9S)-2,2-dioxido-2-thia-1,7-diazabicyclo[4.3.1]dec-9-yl]ethyl}-3-fluorophenyl)-4-fluoro-β-[(1r,4R)-4-hydroxycyclohexyl]-L-phenylalaninamide]",89 nM
10,"COC(=O)N[C@H](C(=O)Nc1cccc(C(F)(F)F)c1CC[C@H]1CN[C@@H]2CCCS(=O)(=O)N1C2)[C@@H](c1ccc(F)cc1)C1C[C@@H](C)O[C@@H](C)C1 (stereo partly drawn) [Example 203, methyl [(1S,2R)-2-[(2R,6S)-2,6-dimethyltetrahydro-2H-pyran-4-yl]-1-{[2-{2-[(6R,9S)-2,2-dioxido-2-thia-1,7-diazabicyclo[4.3.1]dec-9-yl]ethyl}-3-(trifluoromethyl)phenyl]carbamoyl}-2-(4-fluorophenyl)ethyl]carbamate]",150 nM
11,"C[C@@H]1CC([C@H](c2ccc(F)cc2)[C@H](N)C(=O)Nc2cccc(C(F)(F)F)c2CC[C@H]2CN[C@@H]3CCCS(=O)(=O)N2C3)C[C@H](C)O1 (stereo partly drawn) [Example 204, (βR)-β-[(2R,6S)-2,6-dimethyltetrahydro-2H-pyran-4-yl]-N-[2-{2-[(6R,9S)-2,2-dioxido-2-thia-1,7-diazabicyclo[4.3.1]dec-9-yl]ethyl}-3-(trifluoromethyl)phenyl]-4-fluoro-L-phenylalaninamide]",230 nM
12,"CO[C@H]1CC[C@](c2ccc(F)cc2)([C@H](N)C(=O)Nc2cccc(F)c2CC[C@H]2CN[C@@H]3CCCS(=O)(=O)N2C3)CC1 [Example 205, (2S)-2-amino-N-(2-{2-[(6R,9S)-2,2-dioxido-2-thia-1,7-diazabicyclo[4.3.1]dec-9-yl]ethyl}-3-fluorophenyl)-2-[trans-1-(4-fluorophenyl)-4-methoxycyclohexyl]ethanamide]",130 nM
13,"COC(=O)N[C@H](C(=O)Nc1cccc(F)c1CC[C@H]1CN[C@@H]2CCCS(=O)(=O)N1C2)[C@@H](c1ccc(F)cc1)c1cnc(OC(C)C)nc1 [Example 206, methyl [(1S)-2-[(2-{2-[(6R,9S)-2,2-dioxido-2-thia-1,7-diazabicyclo[4.3.1]dec-9-yl]ethyl}-3-fluorophenyl)amino]-1-{(S)-(4-fluorophenyl)[2-(1-methylethoxy)pyrimidin-5-yl]methyl}-2-oxoethyl]carbamate]",16 nM
14,"CO[C@H]1CC[C@H]([C@H](c2ccc(Cl)cc2)[C@H](N)C(=O)N[C@H]2CCCC[C@@H]2CC[C@H]2CN[C@@H]3CCCS(=O)(=O)N2C3)CC1 [Example 207, (βR)-4-chloro-N-[(1S,2R)-2-{2-[(6R,9S)-2,2-dioxido-2-thia-1,7-diazabicyclo[4.3.1]dec-9-yl]ethyl}cyclohexyl]-β-[(1r,4R)-4-methoxycyclohexyl]-L-phenylalaninamide]",40 nM
15,"CC1(OC(=O)N2CCC([C@H](c3ccc(Cl)cc3)[C@H](N)C(=O)N[C@H]3CCC[C@@H]3CC[C@H]3CN[C@@H]4CCCS(=O)(=O)N3C4)CC2)CC1 [Example 208, 1-methylcyclopropyl 4-[(1R,2S)-2-amino-1-(4-chlorophenyl)-3-{[(1S,2R)-2-{2-[(6R,9S)-2,2-dioxido-2-thia-1,7-diazabicyclo[4.3.1]dec-9-yl]ethyl}cyclopentyl]amino}-3-oxopropyl]piperidine-1-carboxylate]",100 nM
16,"COC(=O)N[C@H](C(=O)Nc1cccc(F)c1CC[C@H]1CN[C@@H]2CCCS(=O)(=O)N1C2)[C@]1(c2ccc(F)cc2)CC[C@@H](OC)CC1 [Example 210, methyl {(1S)-2-[(2-{2-[(6R,9S)-2,2-dioxido-2-thia-1,7-diazabicyclo[4.3.1]dec-9-yl]ethyl}-3-fluorophenyl)amino]-1-[trans-1-(4-fluorophenyl)-4-methoxycyclohexyl]-2-oxoethyl}carbamate]",16 nM
17,"CCO[C@H]1CC[C@H]([C@H](c2ccc(F)cc2)[C@H](NC(=O)OC)C(=O)Nc2cccc(F)c2CC[C@H]2CN[C@@H]3CCCS(=O)(=O)N2C3)CC1 [Example 211, methyl {(1S)-2-[(2-{2-[(6R,9S)-2,2-dioxido-2-thia-1,7-diazabicyclo[4.3.1]dec-9-yl]ethyl}-3-fluorophenyl)amino]-1-[(R)-[(1r,4R)-4-ethoxycyclohexyl](4-fluorophenyl)methyl]-2-oxoethyl}carbamate]",6.4 nM
18,"CCO[C@H]1CC[C@H]([C@H](c2ccc(F)cc2)[C@H](N)C(=O)Nc2cccc(F)c2CC[C@H]2CN[C@@H]3CCCS(=O)(=O)N2C3)CC1 [Example 212, (βR)-N-(2-{2-[(6R,9S)-2,2-dioxido-2-thia-1,7-diazabicyclo[4.3.1]dec-9-yl]ethyl}-3-fluorophenyl)-β-[(1r,4R)-4-ethoxycyclohexyl]-4-fluoro-L-phenylalaninamide]",7 nM
19,"N[C@H](C(=O)Nc1cccc(F)c1CC[C@H]1CN[C@@H]2CCCS(=O)(=O)N1C2)[C@@H](c1ccc(F)cc1)C1CCCOC1 (stereo partly drawn) [Example 214, (βR)-N-(2-{2-[(6R,9S)-2,2-dioxido-2-thia-1,7-diazabicyclo[4.3.1]dec-9-yl]ethyl}-3-fluorophenyl)-4-fluoro-β-(tetrahydro-2H-pyran-3-yl)-L-phenylalaninamide]",18 nM
20,"CC1(C)C[C@@H]([C@H](c2ccc(Cl)cc2)[C@H](N)C(=O)Nc2cncc(F)c2CC[C@H]2CN[C@@H]3CCCS(=O)(=O)N2C3)CCO1 [Example 215, (βR)-4-chloro-β-[(4S)-2,2-dimethyltetrahydro-2H-pyran-4-yl]-N-(4-{2-[(6R,9S)-2,2-dioxido-2-thia-1,7-diazabicyclo[4.3.1]dec-9-yl]ethyl}-5-fluoropyridin-3-yl)-L-phenylalaninamide]",8 nM
21,"NC(C(=O)Nc1cccc(F)c1CC[C@H]1CN[C@@H]2CCCS(=O)(=O)N1C2)[C@@H](c1ccc(Cl)cc1)[C@H]1CC[C@H](O)CC1 (stereo partly drawn) [Example 217, (βR)-4-chloro-N-(2-{2-[(6R,9S)-2,2-dioxido-2-thia-1,7-diazabicyclo[4.3.1]dec-9-yl]ethyl}-3-fluorophenyl)-β-[(1r,4R)-4-hydroxycyclohexyl]-L-phenylalaninamide]",13 nM
